These results are taken from patent US20130085283A1, “GERANYLGERANYLACETONE DERIVATIVES” (Coyote Pharmaceuticals, Inc., priority 2011, published 2013).

The test system of one test is Neuro2A cells. Briefly: In vitro neuroprotection: Neuro2A cells cultured with GGA derivative with or without GGTI-298, cells that extended neurites counted. It counts as cell-based, mouse. The following applies: for Activity 1 μM: compound at 1 μM; for Activity 1 μM / Activity 1 nm: cells that extended neurites counted, normalized by the activity of CNS-102 (GGA trans-isomer); for Activity 1 nm: compound at 1 nm (so in the source). Here is the method:
Neuro2A cells were cultured with a GGA derivative in the presence or absence of an inhibitor against a G-protein (GGTI-298). After differentiation was induced, cells that extended neurites were counted as an activity of the compound. The activities are shown in arbitrary units and were normalized by the activity of CNS-102 (GGA trans-isomer) in each parallel experiments.

The test system of the next test is Sprague-Dawley rats. Nature of the test: Neurodegeneration induced by Kainic acid in rats (hippocampus CA3 neuron damage, seizure behavior scores). It counts as in vivo, rat. The following applies: oral dosing, Kainic acid injected. Here is the method:
The compounds and the compositions of this invention are tested in vivo for their ability to alleviate neurodegenerations induced by Kainic acid. See, for example, PCT Pat. App. No. PCT/US2011/050071, supra. A compound or composition of this invention is orally dosed to Sprague-Dawley rats, and Kainic acid is injected. Seizure behaviors are observed and scored (see, e.g., R. J. Racine, Modification of seizure activity by electrical stimulation: II. Motor seizure, Electroencephalogr. Clin. Neurophysiol. 32 (1972) 281-294). Brain tissues of rats are sectioned on histology slides, and neurons in hippocampus tissues are stained by Nissl.
The indicated compounds or vehicle control were orally dosed to Sprague-Dawley rats, and Kainic acid was injected. Seizure behaviors were observed and scored (Ref. R. J. Racine, Modification of seizure activity by electrical stimulation: 11. Motor seizure, Electroencephalogr. Clin. Neurophysiol. 32 (1972) 281-294. Modifications were made for the methods). Brain tissues of rats were sectioned on histology slides, and neurons in hippocampus tissues were stained by Nissl. Neurons damaged by Kainic acid (mean of hippocampus CA3 neurons damaged) and behavior scores (mean of seizure behavior scores) were quantified.

For another test, the system named is HSP70. Nature of the test: Expression of heat shock proteins in vitro (Western blotting of Neuro2A lysates). The following applies: Mus musculus, N2a, retinoic acid differentiation, GGTI-298, 24 hrs; for fold induction at 0.1 µM: 100 nM, signal in the absence of the compounds normalized as 1, read-out: HSP70 Western signal, Compound Dose 100 nM; for fold induction at 1 µM: signal in the absence of the compounds normalized as 1, read-out: HSP70 Western signal, Compound Dose 1 μM; for fold induction at 10 µM: signal in the absence of the compounds normalized as 1, read-out: HSP70 Western signal, Compound Dose 10 μM. It counts as cell-based. Here is the method: Mouse Neuro2A neuroblastoma cells were cultured in DMEM supplemented with 10% FBS for 24 hrs. The cells were treated with various concentrations of the indicated compounds. Then differentiation was induced by retinoic acid in DMEM supplemented with 2% FBS. An inhibitor against a G-protein, GGTI-298, was incubated. After 24 hrs incubation, cells were harvested, and lysates were prepared from the harvested cells. Western blotting analysis was done for the same protein amounts of these lysates, and western signals were detected by chemiluminescence and quantified in parallel with comparisons of those detected in the absence of the compound. Western signals in the absence of the compounds were normalized as 1.
On the technique in general: Immunoblotting shows a protein as a band on a membrane.

Marks after values point to notes of the source that are not given here.

Turning to `CCOC(=O)C(C/C=C(\C)CC/C=C(\C)CCC=C(C)C)C(C)=O` (stereo not shown), the “Activity 1 μM” value in the test on Neuro2A cells is listed as 259* arbitrary units.
As for `CCC(=O)CC/C=C(\C)CC/C=C(\C)CC/C=C(\C)CCC=C(C)C`, in the test with Neuro2A cells, the “Activity 1 nm” value came out at 186 arbitrary units.
Same read-out and setting: next, `CCOC(=O)C(C/C=C(\C)CC/C=C(\C)CC/C=C(\C)CCC=C(C)C)C(=O)C12CC3CC(CC(C3)C1)C2` (stereo not shown): 145 arbitrary units; `CCOC(=O)C(C/C=C(\C)CC/C=C(\C)CC/C=C(\C)CCC=C(C)C)C(=O)C(C)C` (stereo not shown): 173 arbitrary units.
Turning to `CCOC(=O)C(CC=C1CCCCC1)C(C)=O` (stereo not shown), the “Activity 1 μM” value in the test with Neuro2A cells is recorded as 162* arbitrary units.
Still for that read-out and setting: in the case of `CCOC(=O)/C=C(\C)CCC=C1CCCCC1` it was 161* arbitrary units.
In the case of `C/C(=C\CO)CCC=C1CCCCC1`, the “Activity compared with control experiment with no addition of compound” value in the test on Neuro2A cells (in words, concentration not given) is recorded as “* Under the conditions tested, this compound was not found to have activity beyond that of the control for this assay”.
Turning to `CCOC(=O)C=C1CCCCC1`, the “Activity 1 μM” value with Neuro2A cells was 240* arbitrary units.
Same read-out and setting: in the case of `CC(C)=CCC/C(C)=C/CC/C(C)=C/CC/C(C)=C/CC/C(C)=N/OCc1ccccc1` it was 287 arbitrary units.
Take `CCO/N=C(\C)CC/C=C(\C)CC/C=C(\C)CC/C=C(\C)CCC=C(C)C`: the “Mean of Hippocampus CA3 neurons damaged” value in the test on Sprague-Dawley rats (Vehicle 17.59 in this table) stood at 14.66 Arbitrary units.
On to `CC(C)=CCC/C(C)=C/CC/C(C)=C/CC/C(C)=C/CC/C(C)=C/CCC(=O)C1CC1`, for which, in the test on Sprague-Dawley rats (Vehicle 6.59 in this table), the “Mean of Hippocampus CA3 neurons damaged” value is 5.98 Arbitrary units.
As to `CC(C)=CCC/C(C)=C/CC/C(C)=C/CC/C(C)=C/C=O`, the “Mean of Hippocampus CA3 neurons damaged” value with Sprague-Dawley rats (Vehicle 1.72 in this table) turned out to be 1.58 Arbitrary units.
With `CC(C)=CCC/C(C)=C/CC/C(C)=C/CC/C(C)=C/CC/C(C)=N/OCC(=O)O`, the “Mean of Seizure behaviors scores” value in the test with Sprague-Dawley rats (Vehicle 26.68 in this table) came out at 13.37 Arbitrary units.
For the compound `CC(C)=CCC/C(C)=C/CC/C(C)=C/CCC(C)OC(=O)NCC1CCCCC1` (stereo not shown), in the test on HSP70, the fold induction at 0.1 µM was 1.55, the fold induction at 1 µM was found to be 1.49 and the fold induction at 10 µM is 2.53.
The like results for `CCC(=O)CC/C=C(\CC)CC/C=C(\C)CC/C=C(\C)CCC=C(C)C` were, in that order, 1.79, 6.08 and 4.76.
In the case of `CC(C)=CCC/C(C)=C/CC/C(C)=C/CC/C(C)=C/CC1CCCCC1=O` (stereo not shown) [drawing 150], the “Mean of Hippocampus CA3 neurons damaged” value with Sprague-Dawley rats (Vehicle 15.61 in this table) turned out to be 2.64 Arbitrary units.
Still for that read-out and setting: in the case of `CC(=O)CC/C=C(\C)CC/C=C(\C)CC/C=C(\C)CCC=C(C)C` [drawing 151] it was 9.46 Arbitrary units.
Turning to `CC(C)=CCC/C(C)=C/CC/C(C)=C/CC/C(C)=C/CCC1(C)OCCO1` [drawing 152], the “Mean of Hippocampus CA3 neurons damaged” value in the test on Sprague-Dawley rats (Vehicle 15.31 in this table) stood at 12.11 Arbitrary units.
Regarding `CCOC(=O)C(C/C=C(\C)CC/C=C(\C)CC/C=C(\C)CCC=C(C)C)C(C)=O` (stereo not shown) [drawing 153], the “Mean of Hippocampus CA3 neurons damaged” value with Sprague-Dawley rats (Vehicle ~7.74 in this table) is listed as ~5.57 Arbitrary units.
For `CC(=O)CC/C=C(\C)CC/C=C(\C)CCC=C(C)C` [drawing 154], the “Mean of Hippocampus CA3 neurons damaged” value with Sprague-Dawley rats (Vehicle 19.95 in this table) is 10.61 Arbitrary units.
Same read-out and setting: next, `CC/C(=C\CCC(=O)C12CC3CC(CC(C3)C1)C2)CC/C=C(\C)CC/C=C(\C)CCC=C(C)C` [drawing 155]: 12.54 Arbitrary units.
With `COC(=O)C(NC(=O)OC(C)CC/C=C(\C)CC/C=C(\C)CCC=C(C)C)C(C)C` (stereo not shown) [drawing 156], in the test on Sprague-Dawley rats (Vehicle 9.76 in this table), the “Mean of Hippocampus CA3 neurons damaged” value is recorded as 6.61 Arbitrary units.
With `CC(=O)CC/C=C(\C)CC/C=C(\C)CC/C=C(\C)CC/C=C(\C)CCC=C(C)C` [drawing 158], the “Mean of Hippocampus CA3 neurons damaged” value in the test on Sprague-Dawley rats (Vehicle 12.71 in this table) is listed as 2.22 Arbitrary units.
Regarding `CC(C)=CCC/C(C)=C/CC/C(C)=C/CC/C(C)=C/COC(=O)C1CCCCC1` [drawing 159], the “Mean of Hippocampus CA3 neurons damaged” value in the test with Sprague-Dawley rats (Vehicle 6.59 in this table) is recorded as 1.55 Arbitrary units.
Consider `CC(C)=CCC/C(C)=C/CC/C(C)=C/CC/C(C)=C/CCC(=O)C(C)(C)C` [drawing 161], for which the “Mean of Hippocampus CA3 neurons damaged” value in the test with Sprague-Dawley rats (Vehicle 12.91 in this table) was 8.08 Arbitrary units.
With `CCCCCNC(=O)OC(C)CC/C=C(\C)CC/C=C(\C)CCC=C(C)C` (stereo not shown) [drawing 162], the “Mean of Hippocampus CA3 neurons damaged” value with Sprague-Dawley rats (Vehicle 7.09 in this table) was determined as 14.73 Arbitrary units.
For the compound `CC(C)=CCC/C(C)=C/CC/C(C)=C/CC/C(C)=C/CCC1(C)OCCO1` [drawing 165], the “Mean of Seizure behaviors scores” value in the test on Sprague-Dawley rats (Vehicle 41.56 in this table) was 16.35 Arbitrary units.
Regarding `CC(C)=CCC/C(C)=C/CC/C(C)=C/CC/C(C)=C/CCC(=O)C(C)(C)C` [drawing 166], the “Mean of Seizure behaviors scores” value in the test with Sprague-Dawley rats (Vehicle 19.75 in this table) is recorded as 11.25 Arbitrary units.
Turning to `CC(C)=CCC/C(C)=C/CC/C(C)=C/CC/C(C)=C/COC(=O)C1CCCCC1` [drawing 167], the “Mean of Seizure behaviors scores” value with Sprague-Dawley rats (Vehicle 26.31 in this table) worked out at 18.68 Arbitrary units.
`CCOC(=O)C(C/C=C(\C)CC/C=C(\C)CC/C=C(\C)CCC=C(C)C)C(C)=O` (stereo not shown) [drawing 168]: the “Mean of Seizure behaviors scores” value in the test with Sprague-Dawley rats (Vehicle 13.37 in this table) came out at 3.83 Arbitrary units.
As for `CC(C)=CCC/C(C)=C/CC/C(C)=C/CC/C(C)=C/COC(=O)C1CCCCC1` [drawing 169], in the test on HSP70, the fold induction at 0.1 µM was 2.53, the fold induction at 1 µM came out at 2.34 and the fold induction at 10 µM worked out at 2.53.
With `CCCCCNC(=O)OC(C)CC/C=C(\C)CC/C=C(\C)CCC=C(C)C` (stereo not shown) [drawing 170], in the test with HSP70, the fold induction at 0.1 µM came out at 1.16, the fold induction at 1 µM amounted to 1.26 and the fold induction at 10 µM was found to be 1.93.
The like results for `CC(=O)CC/C=C(\C)CC/C=C(\C)CC/C=C(\C)CC/C=C(\C)CCC=C(C)C` [drawing 171] were, in that order, 1.92, 2.78 and 3.53.
The like results for `CC(C)=CCC/C(C)=C/CC/C(C)=C/CC/C(C)=C/CCC1(C)OCCO1` [drawing 172] were, in that order, 3.16, 3.5 and 3.49.
The like results for `CC(C)=CCC/C(C)=C/CC/C(C)=C/CC/C(C)=C/CC1CCCCC1=O` (stereo not shown) [drawing 173] were, in that order, 3.85, 3.78 and 2.25.
Regarding `CC(=O)CC/C=C(\C)CC/C=C(\C)CCC=C(C)C` [drawing 175], in the test on HSP70, the fold induction at 0.1 µM came out at 1.87, the fold induction at 1 µM was determined as 5.86 and the fold induction at 10 µM was found to be 1.79.
For `CC/C(=C\CCC(=O)C12CC3CC(CC(C3)C1)C2)CC/C=C(\C)CC/C=C(\C)CCC=C(C)C` [drawing 177], in that order: 1.71, 2 and 1.
The like results for `CC(=O)CC/C=C(\C)CC/C=C(\C)CC/C=C(\C)CCC=C(C)C` [drawing 178] were, in that order, 1.38, 2.05 and 2.14.
The like results for `COC(=O)C(NC(=O)OC(C)CC/C=C(\C)CC/C=C(\C)CCC=C(C)C)C(C)C` (stereo not shown) [drawing 179] were, in that order, 1.26, 1.07 and 1.29.
